Values after ≈ are worked out from the molar mass of the structure shown.
Experiments:
Staphylococcus aureus [1] = assay: Antimicrobial activity against Staphylococcus aureus ATCC 29213 assessed as inhibition of bacterial growth incubated for 16 to 18 hrs by broth micro dilution technique; assay type: functional; conditions: time 16-18 hrs
HepG2 = assay: Cytotoxicity against human HepG2 cells assessed as growth inhibition incubated for 68 hrs by MTT assay; assay type: functional, cell-based; conditions: HepG2, 68 h
Micrococcus luteus = assay: Antimicrobial activity against Micrococcus luteus ML01 assessed as inhibition of bacterial growth incubated for 16 to 18 hrs by broth micro dilution technique; assay type: functional; conditions: time 16-18 hrs
Enterococcus faecalis = assay: Antimicrobial activity against Enterococcus faecalis ATCC 29212 assessed as inhibition of bacterial growth incubated for 16 to 18 hrs by broth micro dilution technique; assay type: functional; conditions: time 16-18 hrs
Staphylococcus aureus [2] = assay: Antimicrobial activity against Staphylococcus aureus Sau 718306 assessed as inhibition of bacterial growth incubated for 16 to 18 hrs by broth micro dilution technique; assay type: functional; conditions: time 16-18 hrs
Staphylococcus aureus [3] = assay: Antimicrobial activity against Staphylococcus aureus Sau 6917 assessed as inhibition of bacterial growth incubated for 16 to 18 hrs by broth micro dilution technique; assay type: functional; conditions: time 16-18 hrs
L02 = assay: Cytotoxicity against human L02 cells assessed as growth inhibition incubated for 68 hrs by MTT assay; assay type: cell-based; conditions: L02, 68 h
Staphylococcus aureus [4] = assay: Antimicrobial activity against Staphylococcus aureus CCAM 3090 assessed as inhibition of bacterial growth incubated for 16 to 18 hrs by broth micro dilution technique; assay type: functional; conditions: time 16-18 hrs
BEAS-2B = assay: Cytotoxicity against human BEAS-2B cells assessed as growth inhibition incubated for 68 hrs by MTT assay; assay type: cell-based
HeLa = assay: Cytotoxicity against human HeLa cells assessed as growth inhibition incubated for 68 hrs by MTT assay; assay type: functional, cell-based
Staphylococcus aureus [5] = assay: Antimicrobial activity against Staphylococcus aureus Sau 745524 assessed as inhibition of bacterial growth incubated for 16 to 18 hrs by broth micro dilution technique; assay type: functional; conditions: time 16-18 hrs
Enterococcus faecium = assay: Antimicrobial activity against Enterococcus faecium ATCC 35682 assessed as inhibition of bacterial growth incubated for 16 to 18 hrs by broth micro dilution technique; assay type: functional; conditions: time 16-18 hrs
Staphylococcus aureus [6] = assay: Antimicrobial activity against Staphylococcus aureus Sau 991 assessed as inhibition of bacterial growth incubated for 16 to 18 hrs by broth micro dilution technique; assay type: functional; conditions: time 16-18 hrs
RKO = assay: Cytotoxicity against human RKO cells assessed as growth inhibition incubated for 68 hrs by MTT assay; assay type: functional, cell-based
Candida albicans = assay: Antimicrobial activity against Candida albicans assessed as inhibition of bacterial growth incubated for 16 to 18 hrs by broth micro dilution technique; assay type: functional; conditions: time 16-18 hrs
MCF7 = assay: Cytotoxicity against human MCF7 cells assessed as growth inhibition incubated for 68 hrs by MTT assay; assay type: functional, cell-based; conditions: MCF7, 68 h
Bacillus thuringiensis = assay: Antimicrobial activity against Bacillus thuringiensis BT01 assessed as inhibition of bacterial growth incubated for 16 to 18 hrs by broth micro dilution technique; assay type: functional; conditions: time 16-18 hrs
A549 = assay: Cytotoxicity against human A549 cells assessed as growth inhibition incubated for 68 hrs by MTT assay; assay type: functional, cell-based; conditions: A549, 68 h
HL-60 = assay: Cytotoxicity against human HL-60 cells assessed as growth inhibition incubated for 68 hrs by MTT assay; assay type: functional, cell-based; conditions: HL-60, 68 h
Staphylococcus aureus [7] = assay: Antimicrobial activity against Staphylococcus aureus Sau 1862 assessed as inhibition of bacterial growth incubated for 16 to 18 hrs by broth micro dilution technique; assay type: functional; conditions: time 16-18 hrs
Staphylococcus aureus [8] = assay: Antimicrobial activity against Staphylococcus aureus Sau 16162 assessed as inhibition of bacterial growth incubated for 16 to 18 hrs by broth micro dilution technique; assay type: functional; conditions: time 16-18 hrs

Row | MIC (Staphylococcus aureus [1]) | MIC (Micrococcus luteus) | MIC (Enterococcus faecalis) | MIC (Staphylococcus aureus [2]) | MIC (Staphylococcus aureus [3]) | MIC (Staphylococcus aureus [4]) | MIC (Staphylococcus aureus [5]) | MIC (Enterococcus faecium) | MIC (Staphylococcus aureus [6]) | MIC (Candida albicans) | MIC (Bacillus thuringiensis) | MIC (Staphylococcus aureus [7]) | MIC (Staphylococcus aureus [8]) | Structure (SMILES) | IC50 (HepG2) | IC50 (L02) | IC50 (BEAS-2B) | IC50 (HeLa) | IC50 (RKO) | IC50 (MCF7) | IC50 (A549) | also measured
1 | 4 µg/mL (≈ 2.7 µM) | < 0.06 µg/mL | 2 µg/mL (≈ 1.35 µM) | 2 µg/mL (≈ 1.35 µM) | 4 µg/mL (≈ 2.7 µM) | 4 µg/mL (≈ 2.7 µM) | 2 µg/mL (≈ 1.35 µM) | 0.06 µg/mL (≈ 0.0406 µM) | 2 µg/mL (≈ 1.35 µM) | 0.13 µg/mL (≈ 0.0879 µM) | 0.13 µg/mL (≈ 0.0879 µM) | 2 µg/mL (≈ 1.35 µM) | 4 µg/mL (≈ 2.7 µM) | CC(C)[C@H]1C(=O)O[C@H](C)[C@H](NC(=O)c2c3nc4c(C(=O)N[C@@H]5C(=O)N[C@H](C(C)C)C(=O)N6CCC[C@H]6C(=O)N(C)CC(=O)N(C)[C@@H](C(C)C)C(=O)O[C@@H]5C)ccc(I)c4oc-3c(I)c(=O)c2N)C(=O)N[C@H](C(C)C)C(=O)N2CCC[C@H]2C(=O)N(C)CC(=O)N1C | 100 nM | 1500 nM | 500 nM | 200 nM | 200 nM | 1100 nM | 5000 nM | IC50 (HL-60): 50 nM
2 | 16 µg/mL (≈ 12.7 µM) | 0.25 µg/mL (≈ 0.198 µM) | 16 µg/mL (≈ 12.7 µM) | 8 µg/mL (≈ 6.34 µM) | 16 µg/mL (≈ 12.7 µM) | 16 µg/mL (≈ 12.7 µM) | 8 µg/mL (≈ 6.34 µM) | 2 µg/mL (≈ 1.59 µM) | 8 µg/mL (≈ 6.34 µM) | 8 µg/mL (≈ 6.34 µM) | 4 µg/mL (≈ 3.17 µM) | 8 µg/mL (≈ 6.34 µM) | 32 µg/mL (≈ 25.4 µM) | CC(C)[C@H]1C(=O)O[C@H](C)[C@H](NC(=O)c2c3nc4c(C(=O)N[C@@H]5C(=O)N[C@H](C(C)C)C(=O)N6CCC[C@H]6C(=O)N(C)CC(=O)N(C)[C@@H](C(C)C)C(=O)O[C@@H]5C)cccc4oc-3c(Cl)c(=O)c2N)C(=O)N[C@H](C(C)C)C(=O)N2CCC[C@H]2C(=O)N(C)CC(=O)N1C |  |  |  |  |  |  |  | 
3 | 8 µg/mL (≈ 5.78 µM) | < 0.06 µg/mL | 16 µg/mL (≈ 11.6 µM) | 8 µg/mL (≈ 5.78 µM) | 16 µg/mL (≈ 11.6 µM) | 8 µg/mL (≈ 5.78 µM) | 8 µg/mL (≈ 5.78 µM) | 0.13 µg/mL (≈ 0.0939 µM) | 8 µg/mL (≈ 5.78 µM) | 16 µg/mL (≈ 11.6 µM) | 0.25 µg/mL (≈ 0.18 µM) | 8 µg/mL (≈ 5.78 µM) | 16 µg/mL (≈ 11.6 µM) | CC(C)[C@H]1C(=O)O[C@H](C)[C@H](NC(=O)c2c3nc4c(C(=O)N[C@@H]5C(=O)N[C@H](C(C)C)C(=O)N6CCC[C@H]6C(=O)N(C)CC(=O)N(C)[C@@H](C(C)C)C(=O)O[C@@H]5C)ccc(Br)c4oc-3c(Br)c(=O)c2N)C(=O)N[C@H](C(C)C)C(=O)N2CCC[C@H]2C(=O)N(C)CC(=O)N1C | 2400 nM | 17600 nM | 2200 nM | 6200 nM | 1500 nM | 1500 nM | 1100 nM | IC50 (HL-60): 40 nM

Row | Structure (SMILES) | MIC (Staphylococcus aureus [1]) | MIC (Micrococcus luteus) | MIC (Enterococcus faecalis) | MIC (Staphylococcus aureus [2]) | MIC (Staphylococcus aureus [3]) | MIC (Staphylococcus aureus [4]) | MIC (Staphylococcus aureus [5]) | MIC (Enterococcus faecium) | MIC (Staphylococcus aureus [6]) | MIC (Candida albicans) | MIC (Bacillus thuringiensis) | MIC (Staphylococcus aureus [7]) | MIC (Staphylococcus aureus [8]) | IC50 (HepG2) | IC50 (L02) | IC50 (BEAS-2B) | IC50 (HeLa) | IC50 (RKO) | IC50 (MCF7) | IC50 (A549) | also measured
4 | CC1(C)S[C@@H]2[C@H](NC(=O)[C@H](N)c3ccccc3)C(=O)N2[C@H]1C(=O)O [AMPICILLIN] | 1 µg/mL (≈ 2.86 µM) | 0.13 µg/mL (≈ 0.372 µM) | 32 µg/mL (≈ 91.6 µM) |  | 8 µg/mL (≈ 22.9 µM) | > 64 µg/mL | 2 µg/mL (≈ 5.72 µM) | > 64 µg/mL |  | 0.13 µg/mL (≈ 0.372 µM) | 2 µg/mL (≈ 5.72 µM) | 8 µg/mL (≈ 22.9 µM) | 64 µg/mL (≈ 183 µM) |  |  |  |  |  |  |  | 
5 | CN[C@H](CC(C)C)C(=O)N[C@H]1C(=O)N[C@@H](CC(N)=O)C(=O)N[C@H]2C(=O)N[C@H]3C(=O)N[C@H](C(=O)N[C@H](C(=O)O)c4cc(O)cc(O)c4-c4cc3ccc4O)[C@H](O)c3ccc(c(Cl)c3)Oc3cc2cc(c3O[C@@H]2O[C@H](CO)[C@@H](O)[C@H](O)[C@H]2O[C@H]2C[C@](C)(N)[C@H](O)[C@H](C)O2)Oc2ccc(cc2Cl)[C@H]1O [VANCOMYCIN] |  | 0.25 µg/mL (≈ 0.173 µM) | 1 µg/mL (≈ 0.69 µM) |  |  | 0.25 µg/mL (≈ 0.173 µM) |  | > 64 µg/mL |  | 0.25 µg/mL (≈ 0.173 µM) | 4 µg/mL (≈ 2.76 µM) |  | 64 µg/mL (≈ 44.2 µM) |  |  |  |  |  |  |  | 

Reference: ChEMBL document CHEMBL4828714, “Mutasynthesis of Antibacterial Halogenated Actinomycin Analogues” (J Nat Prod, 2021)
